Source: patent publication US20190218261A1, “TARGETED ENHANCED DNA DEMETHYLATION” (The Jackson Laboratory, priority 2016, published 2019)

Tested on: hMLH1 expression (methylation-silenced hMLH1 promoter) in HEK293T cells
Assay: hMLH1 mRNA levels by TaqMan qRT-PCR in transfected HEK293T cells
Format: cell-based, human
Settings: for hMLH1 activation, comparison in words (direct dCas9 fusions vs Casilio-ME): same combination of sgRNAs; for hMLH1 expression, fold over background (change in mRNA levels): sgRNAs 3+7, 60 hours post-transfection, GAPDH control
Procedure: To test the system, HEK293T cells were transfected with Casilio-ME components including Ct or Nt-fusion TET1-effector and a combination of 3 or 2 sgRNAs. Relative levels of hMLH1 mRNA were determined in TaqMan assays by using RNA extracted from cells 60 hours post-transfection and GAPDH as endogenous control for normalization of qRT-PCR measurements.
Cell culture and transfection. HEK293T cells were cultivated in Dulbecco's modified Eagle's medium (DMEM)(Sigma) with 10% fetal bovine serum (FBS)(Lonza), 4% Glutamax (Gibco), 1% Sodium Pyruvate (Gibco) and penicillin-streptomycin (Gibco) in an incubator set to 37° C. and 5% CO2. When indicated cells were treated with 2.5 μM or 5 μM 5-Azacytidine (sigma) as indicated with a daily change of medium containing freshly diluted drug. Cells were seeded into 12-well plates at 150,000 cells per well the day before being transfected with 100 ng of dCas9 construct, 100 ng of modified sgRNA construct and 200 ng of PUF-fusion with Attractene transfection reagent according to manufacturer's instructions (Qiagen). In dCas9-direct fusion experiments, cells were transfected with 200 ng dCas9-fusion constructs and 200 ng of modified sgRNA constructs. Transfected cells were harvested 60 hours after transfection, or otherwise indicated, and cell pellets were used for extractions of RNA, genomic DNA and protein.
Quantitative RT-PCR analysis. Cells were harvested, washed with Dulbecco's phosphate-buffered saline (dPBS), centrifuged at 125×g for 5 min and then the flash-frozen pellets were stored at −80° C. RNA was extracted using RNeasy Plus Mini Kit according to the manufacturer's instructions (Qiagen). cDNA libraries were made using Applied Biosystems High Capacity RNA-to-cDNA kit with 200 ng to 1 μg of RNA. TaqMan gene expression assays (Applied Biosystems) were designed using GAPDH (Hs03929097, VIC) as endogenous control and hMLH1 (Hs00179866, FAM) as target. TaqMan Universal Master Mix II, with UNG (Applied Biosystems) was used for Quantitative PCR (qPCR), with 2 μl of diluted cDNA used for each reaction. Activation was analyzed with the Applied Biosystems ViiA7 instrument. Gene expression levels were calculated by “delta delta Ct” algorithm and normalized to control samples.
HEK293T cells were cultivated in Dulbecco's modified Eagle's medium (DMEM) (Sigma) with 10% fetal bovine serum (FBS) (Lonza), 4% Glutamax (Gibco), 1% Sodium Pyruvate (Gibco) and penicillin-streptomycin (Gibco) in an incubator set to 37° C. and 5% CO2. Cells were seeded into 12-well plates at 150,000 cells per well the day before being transfected with 100 ng of dCas9 construct, 100 ng of modified sgRNA construct and 200 ng of PUF-fusion with Attractene transfection reagent according to manufacturer's instructions (Qiagen). Transfected cells were harvested 3 days after transfection, or otherwise indicated, and cell pellets were used for RNA extractions.
Cells were harvested, washed with Dulbecco's phosphate-buffered saline (dPBS), centrifuged at 125×g for 5 min and then the flash-frozen pellets were stored at −80° C. RNA was extracted using RNeasy Plus Mini Kit according to the manufacturer's instructions (Qiagen). cDNA libraries were made using Applied Biosystems High Capacity RNA-to-cDNA kit with 200 ng to 2 μg of RNA. TaqMan gene expression assays (Applied Biosystems) were designed using GAPDH (Hs03929097, VIC) as endogenous control and hMLH1 (Hs00179866, FAM) as target. TaqMan Universal Master Mix II, with UNG (Applied Biosystems) was used for Quantitative PCR (qPCR), with 2 μl of diluted cDNA used for each reaction. Activation was analyzed with the Applied Biosystems ViiA7 instrument. Gene expression levels were calculated by “delta delta Ct” algorithm and normalized to control samples.

TET1(CD)-dCas9: direct N-terminal fusion of TET1(CD) to dCas9; SEQ ID NO:52
hMLH1 activation, comparison in words (direct dCas9 fusions vs Casilio-ME) (HEK293T): much weaker activation than its respective C-terminal fusion

dCas9-TET1(CD): direct C-terminal fusion of TET1(CD) to dCas9; SEQ ID NO:53
hMLH1 activation, comparison in words (direct dCas9 fusions vs Casilio-ME) (HEK293T): relatively weak activation | hMLH1 activation relative to dCas9-p65HSF1 (HEK293T, same sgRNA combination): at best twice the activity obtained with transcription activator dCas9 fusion | hMLH1 expression, fold over background (change in mRNA levels) (HEK293T): 19 fold | hMLH1 activation as share of activation obtained using Casilio-ME (same sgRNAs combination, parallel experiment): about 14%

B1: TET1(CD)-PUFa: TET1 catalytic domain fused to N-terminus of PUFa; SEQ ID NO:54 (protein)
chain: MGPAELPTCSCLDRVIQKDKGPYYTHLGAGPSVAAVREIMENRYGQKGNAIRIEIVVYTGKEGKSSHGCPIAKWVLRRSSDEEKVLCLVRQRTGHHCPTAVMVVLIMVWDGIPLPMADRLYTELTENLKSYNGHPTDRRCTLNENRTCTCQGIDPETCGASFSFGCSWSMYFNGCKFGRSPSPRRFRIDPSSPLHEKNLEDNLQSLATRLAPIYKQYAPVAYQNQVEYENVARECRLGSKEGRPFSGVTACLDFCAHPHRDIHNMNNGSTVVCTLTREDNRSLGVIPQDEQLHVLPLYKLSDTDEFGSKEGMEAKIKSGAIEVLAPRRKKRTCFTQPVPRSGKKRAAMMTEVLAHKIRAVEKKPIPRIKRKNNSTTTNNSKPSSLPTLGSNTETVQPEVKSETEPHFILKSSDNTKTYSLMPSAPHPVKEASPGFSWSPKTASATPAPLKNDATASCGFSERSSTPHCTMPSGRLSGANAAAADGPGISQLGEVAPLPTLSAPVMEPLINSEPSTGVTEPLTPHQPNHQPSFLTSPQDLASSPMEEDEQHSEADEPPSDEPLSDDPLSPAEEKLPHIDEYWSDSEHIFLDANIGGVAIAPAHGSVLIECARRELHATTPVEHPNRNHPTRLSLVFYQHKNLNKPQHGFELNKIKFEAKEAKNKKMKASEQKDQAANEGPEQSSEVNELNQIPSHKALTLTHDNVVTVSPYALTHVAGPYNHWVIDGGGGSDPKKKRKVDPKKKRKVDPKKKRKVGSTGSRNDGGGGSGGGGSGGGGSGRAGILPPKKKRKVSRGRSRLLEDFRNNRYPNLQLREIAGHIMEFSQDQHGSRFIQLKLERATPAERQLVFNEILQAAYQLMVDVFGNYVIQKFFEFGSLEQKLALAERIRGHVLSLALQMYGSRVIEKALEFIPSDQQNEMVRELDGHVLKCVKDQNGNHVVQKCIECVQPQSLQFIIDAFKGQVFALSTHPYGCRVIQRILEHCLPDQTLPILEELHQHTEQLVQDQYGNYVIQHVLEHGRPEDKSKIVAEIRGNVLVLSQHKFASNVVEKCVTHASRTERAVLIDEVCTMNDGPHSALYTMMKDQYANYVVQKMIDVAEPGQRKIVMHKIRPHIATLRKYTYGKHILAKLEKYYMKNGVDLGDPKKKRKVDPKKKRKVGGRGGGGSGGGGSGGGGSGPA
hMLH1 expression, fold over background (change in mRNA levels) (HEK293T): ≤ 20 fold
